# From ChEMBL document CHEMBL3991601, “The target landscape of clinical kinase drugs” (Science, 2017)
# Active and inactive are the calls of the source. Rule as the data show it, for most assays here: actives have a measured Kd and inactives only a lower limit.
# Key:
# [1] = molecular target: Bone morphogenetic protein receptor type-1B (Homo sapiens, UniProt O00238)
# [2] = molecular target: Citron Rho-interacting kinase (Homo sapiens, UniProt O14578)
# [3] = molecular target: Ephrin type-A receptor 7 (Homo sapiens, UniProt Q15375)
# [4] = molecular target: T1, Ephrin type-B receptor 4 (Homo sapiens, UniProt P54760)
# T1 sequence (P54760 whole entry): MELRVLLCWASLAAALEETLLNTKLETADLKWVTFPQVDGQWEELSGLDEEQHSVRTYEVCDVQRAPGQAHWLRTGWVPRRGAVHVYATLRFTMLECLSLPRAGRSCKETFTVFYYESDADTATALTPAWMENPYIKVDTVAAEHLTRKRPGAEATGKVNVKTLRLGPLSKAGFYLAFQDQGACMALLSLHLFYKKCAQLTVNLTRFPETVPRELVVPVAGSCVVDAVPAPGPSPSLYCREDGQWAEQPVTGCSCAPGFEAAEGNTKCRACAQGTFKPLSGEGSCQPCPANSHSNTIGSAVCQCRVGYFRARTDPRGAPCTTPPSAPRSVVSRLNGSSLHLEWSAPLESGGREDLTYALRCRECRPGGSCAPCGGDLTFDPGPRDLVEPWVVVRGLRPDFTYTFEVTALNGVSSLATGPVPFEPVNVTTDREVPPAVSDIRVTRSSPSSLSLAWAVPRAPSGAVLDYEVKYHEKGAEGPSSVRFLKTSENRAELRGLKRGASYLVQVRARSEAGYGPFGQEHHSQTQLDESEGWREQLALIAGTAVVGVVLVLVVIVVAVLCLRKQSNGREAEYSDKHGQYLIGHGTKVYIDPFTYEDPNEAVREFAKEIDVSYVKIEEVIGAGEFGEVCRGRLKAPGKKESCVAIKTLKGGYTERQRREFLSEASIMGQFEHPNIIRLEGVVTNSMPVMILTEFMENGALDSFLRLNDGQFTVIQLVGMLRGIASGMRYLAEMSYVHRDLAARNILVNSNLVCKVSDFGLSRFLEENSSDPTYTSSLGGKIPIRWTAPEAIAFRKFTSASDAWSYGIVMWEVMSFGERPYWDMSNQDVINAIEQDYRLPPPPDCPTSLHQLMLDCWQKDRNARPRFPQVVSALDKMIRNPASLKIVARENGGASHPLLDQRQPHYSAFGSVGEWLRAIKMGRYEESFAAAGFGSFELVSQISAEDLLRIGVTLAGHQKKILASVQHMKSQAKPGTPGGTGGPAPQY
# [5] = molecular target: Dual specificity mitogen-activated protein kinase kinase 2 (Homo sapiens, UniProt P36507)
# [6] = molecular target: T2, Rab-like protein 3 (Homo sapiens, UniProt Q5HYI8)
# T2 sequence (Q5HYI8 whole entry): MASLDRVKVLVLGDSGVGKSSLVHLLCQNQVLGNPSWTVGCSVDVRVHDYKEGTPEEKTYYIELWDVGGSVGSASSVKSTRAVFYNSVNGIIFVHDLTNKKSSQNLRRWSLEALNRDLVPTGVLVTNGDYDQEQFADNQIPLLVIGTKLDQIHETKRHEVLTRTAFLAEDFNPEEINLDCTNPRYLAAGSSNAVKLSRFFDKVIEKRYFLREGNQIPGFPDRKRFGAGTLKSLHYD
# [7] = molecular target: T3, STE20-related kinase adapter protein alpha (Homo sapiens, UniProt Q7RTN6)
# T3 sequence (Q7RTN6 whole entry): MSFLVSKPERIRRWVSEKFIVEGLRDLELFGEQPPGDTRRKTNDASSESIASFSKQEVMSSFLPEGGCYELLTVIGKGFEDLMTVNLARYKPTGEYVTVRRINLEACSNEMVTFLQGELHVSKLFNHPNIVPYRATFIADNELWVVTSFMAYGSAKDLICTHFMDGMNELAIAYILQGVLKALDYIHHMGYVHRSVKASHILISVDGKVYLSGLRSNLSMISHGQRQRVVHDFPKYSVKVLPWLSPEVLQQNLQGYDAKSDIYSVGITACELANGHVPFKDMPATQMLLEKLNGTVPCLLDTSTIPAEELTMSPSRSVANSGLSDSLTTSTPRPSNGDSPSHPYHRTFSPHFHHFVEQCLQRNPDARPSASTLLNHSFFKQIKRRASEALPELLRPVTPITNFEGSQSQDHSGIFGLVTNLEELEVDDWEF
# [8] = molecular target: T4, TGF-beta receptor type-1 (Homo sapiens, UniProt P36897)
# T4 sequence (P36897 whole entry): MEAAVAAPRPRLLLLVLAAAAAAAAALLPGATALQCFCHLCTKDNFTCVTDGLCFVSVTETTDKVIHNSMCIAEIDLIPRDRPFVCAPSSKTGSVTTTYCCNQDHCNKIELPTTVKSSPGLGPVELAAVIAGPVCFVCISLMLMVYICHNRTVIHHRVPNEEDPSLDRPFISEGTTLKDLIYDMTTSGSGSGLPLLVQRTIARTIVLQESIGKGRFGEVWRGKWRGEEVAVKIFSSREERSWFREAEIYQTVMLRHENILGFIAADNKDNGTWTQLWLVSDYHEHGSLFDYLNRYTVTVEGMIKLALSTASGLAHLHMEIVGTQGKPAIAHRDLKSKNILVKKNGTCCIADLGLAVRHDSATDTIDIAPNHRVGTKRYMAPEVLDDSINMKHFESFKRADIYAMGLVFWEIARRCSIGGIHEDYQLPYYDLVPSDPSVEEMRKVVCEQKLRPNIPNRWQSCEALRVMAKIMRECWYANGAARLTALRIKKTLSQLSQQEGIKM
# [9] = molecular target: Wee1-like protein kinase (Homo sapiens, UniProt P30291)
# [10] = molecular target: Tyrosine-protein kinase Yes (Homo sapiens, UniProt P07947)
# [11] = molecular target: Mitogen-activated protein kinase 3 (Homo sapiens, UniProt P27361)
# [12] = molecular target: Mitogen-activated protein kinase 9 (Homo sapiens, UniProt P45984)
# Also: in the data inactive means no Kd found up to 30 µM.
# Sequence of Tyrosine-protein kinase Yes (P07947 whole entry): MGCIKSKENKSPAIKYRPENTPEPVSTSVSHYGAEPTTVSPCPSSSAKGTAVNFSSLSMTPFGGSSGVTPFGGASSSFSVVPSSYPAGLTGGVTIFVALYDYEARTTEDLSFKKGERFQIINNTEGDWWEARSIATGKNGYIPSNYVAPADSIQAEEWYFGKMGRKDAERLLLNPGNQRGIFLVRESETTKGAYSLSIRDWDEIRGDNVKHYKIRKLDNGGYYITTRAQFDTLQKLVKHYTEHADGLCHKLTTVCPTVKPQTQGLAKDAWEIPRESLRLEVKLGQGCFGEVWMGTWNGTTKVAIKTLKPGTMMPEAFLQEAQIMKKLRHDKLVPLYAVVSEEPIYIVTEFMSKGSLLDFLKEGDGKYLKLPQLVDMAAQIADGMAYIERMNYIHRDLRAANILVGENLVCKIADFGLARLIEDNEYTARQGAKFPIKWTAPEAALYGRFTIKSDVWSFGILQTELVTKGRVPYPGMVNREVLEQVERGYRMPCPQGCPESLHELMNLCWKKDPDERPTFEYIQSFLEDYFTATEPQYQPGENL
# Sequence of Citron Rho-interacting kinase (O14578 whole entry): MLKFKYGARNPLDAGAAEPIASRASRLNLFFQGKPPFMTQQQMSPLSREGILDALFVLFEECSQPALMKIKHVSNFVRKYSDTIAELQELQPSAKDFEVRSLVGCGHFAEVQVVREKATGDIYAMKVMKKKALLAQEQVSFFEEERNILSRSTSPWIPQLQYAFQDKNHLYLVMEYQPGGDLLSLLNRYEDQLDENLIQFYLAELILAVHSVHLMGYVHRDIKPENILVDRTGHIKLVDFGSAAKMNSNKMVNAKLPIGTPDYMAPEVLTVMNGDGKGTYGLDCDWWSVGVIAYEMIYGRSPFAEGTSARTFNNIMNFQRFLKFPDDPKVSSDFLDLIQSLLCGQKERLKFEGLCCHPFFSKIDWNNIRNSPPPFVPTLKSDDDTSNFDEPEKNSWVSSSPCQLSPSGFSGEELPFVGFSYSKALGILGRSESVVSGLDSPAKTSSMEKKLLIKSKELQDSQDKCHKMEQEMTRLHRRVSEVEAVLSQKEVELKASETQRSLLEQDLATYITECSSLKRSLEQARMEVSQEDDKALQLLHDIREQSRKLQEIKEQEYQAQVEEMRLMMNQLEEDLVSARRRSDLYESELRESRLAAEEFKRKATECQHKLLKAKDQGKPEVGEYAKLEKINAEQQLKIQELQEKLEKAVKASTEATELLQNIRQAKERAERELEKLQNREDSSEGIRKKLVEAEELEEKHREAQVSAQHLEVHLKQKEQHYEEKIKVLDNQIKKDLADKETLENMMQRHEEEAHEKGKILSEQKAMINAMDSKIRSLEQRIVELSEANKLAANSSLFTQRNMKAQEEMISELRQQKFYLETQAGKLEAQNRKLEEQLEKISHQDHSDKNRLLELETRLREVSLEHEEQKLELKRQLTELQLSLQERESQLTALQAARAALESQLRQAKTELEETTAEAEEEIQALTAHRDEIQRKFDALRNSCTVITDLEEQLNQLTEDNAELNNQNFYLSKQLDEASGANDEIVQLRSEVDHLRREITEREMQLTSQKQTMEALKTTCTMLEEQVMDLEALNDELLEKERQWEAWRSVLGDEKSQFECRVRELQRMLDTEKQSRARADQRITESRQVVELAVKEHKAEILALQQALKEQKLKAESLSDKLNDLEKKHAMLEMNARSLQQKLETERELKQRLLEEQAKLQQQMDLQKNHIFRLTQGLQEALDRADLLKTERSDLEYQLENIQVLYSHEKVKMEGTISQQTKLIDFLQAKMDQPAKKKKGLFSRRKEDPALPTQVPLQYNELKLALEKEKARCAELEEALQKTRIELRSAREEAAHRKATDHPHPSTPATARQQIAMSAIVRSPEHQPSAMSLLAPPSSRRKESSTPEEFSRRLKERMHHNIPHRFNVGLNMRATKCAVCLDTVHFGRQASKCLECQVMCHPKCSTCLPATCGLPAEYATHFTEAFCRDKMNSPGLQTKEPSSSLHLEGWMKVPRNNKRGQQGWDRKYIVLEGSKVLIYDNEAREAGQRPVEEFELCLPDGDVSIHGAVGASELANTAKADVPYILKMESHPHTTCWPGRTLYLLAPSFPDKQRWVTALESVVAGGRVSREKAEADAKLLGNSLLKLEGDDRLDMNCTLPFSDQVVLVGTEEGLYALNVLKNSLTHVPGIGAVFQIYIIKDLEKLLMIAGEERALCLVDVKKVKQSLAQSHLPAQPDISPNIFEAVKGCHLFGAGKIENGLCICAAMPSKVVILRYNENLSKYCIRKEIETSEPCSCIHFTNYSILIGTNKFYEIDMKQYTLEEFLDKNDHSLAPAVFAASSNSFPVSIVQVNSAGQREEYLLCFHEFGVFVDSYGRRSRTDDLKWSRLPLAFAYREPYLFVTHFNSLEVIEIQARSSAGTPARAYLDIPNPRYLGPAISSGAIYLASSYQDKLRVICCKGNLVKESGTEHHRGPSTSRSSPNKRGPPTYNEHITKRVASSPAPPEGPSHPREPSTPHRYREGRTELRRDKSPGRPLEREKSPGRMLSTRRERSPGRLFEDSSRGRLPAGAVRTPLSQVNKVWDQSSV
# Sequence of Ephrin type-A receptor 7 (Q15375 whole entry): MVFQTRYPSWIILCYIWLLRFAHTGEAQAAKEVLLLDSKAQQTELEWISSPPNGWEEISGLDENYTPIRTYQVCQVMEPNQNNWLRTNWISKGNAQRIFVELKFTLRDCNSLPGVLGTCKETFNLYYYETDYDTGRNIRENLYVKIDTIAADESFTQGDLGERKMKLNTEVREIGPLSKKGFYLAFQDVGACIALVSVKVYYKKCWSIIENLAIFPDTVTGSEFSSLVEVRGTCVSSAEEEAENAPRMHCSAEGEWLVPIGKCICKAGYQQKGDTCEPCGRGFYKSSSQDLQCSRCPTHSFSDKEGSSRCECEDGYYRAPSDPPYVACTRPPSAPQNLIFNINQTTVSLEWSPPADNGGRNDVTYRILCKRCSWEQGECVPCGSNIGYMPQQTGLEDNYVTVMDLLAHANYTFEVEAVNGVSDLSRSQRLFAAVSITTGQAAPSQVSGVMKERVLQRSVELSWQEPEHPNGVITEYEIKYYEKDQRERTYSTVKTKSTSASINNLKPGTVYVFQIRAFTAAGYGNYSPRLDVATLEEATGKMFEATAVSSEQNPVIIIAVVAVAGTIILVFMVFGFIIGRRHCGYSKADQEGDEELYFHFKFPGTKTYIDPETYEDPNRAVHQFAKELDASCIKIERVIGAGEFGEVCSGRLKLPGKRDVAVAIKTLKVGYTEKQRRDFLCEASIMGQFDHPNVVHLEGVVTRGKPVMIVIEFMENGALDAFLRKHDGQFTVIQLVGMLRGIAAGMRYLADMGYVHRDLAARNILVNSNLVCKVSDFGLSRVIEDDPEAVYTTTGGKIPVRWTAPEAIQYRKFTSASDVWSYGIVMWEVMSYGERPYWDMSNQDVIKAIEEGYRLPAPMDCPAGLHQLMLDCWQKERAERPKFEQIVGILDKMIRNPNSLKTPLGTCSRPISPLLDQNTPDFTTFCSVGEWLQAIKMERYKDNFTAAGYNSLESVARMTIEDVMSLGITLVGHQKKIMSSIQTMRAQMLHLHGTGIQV
# Sequence of Wee1-like protein kinase (P30291 whole entry): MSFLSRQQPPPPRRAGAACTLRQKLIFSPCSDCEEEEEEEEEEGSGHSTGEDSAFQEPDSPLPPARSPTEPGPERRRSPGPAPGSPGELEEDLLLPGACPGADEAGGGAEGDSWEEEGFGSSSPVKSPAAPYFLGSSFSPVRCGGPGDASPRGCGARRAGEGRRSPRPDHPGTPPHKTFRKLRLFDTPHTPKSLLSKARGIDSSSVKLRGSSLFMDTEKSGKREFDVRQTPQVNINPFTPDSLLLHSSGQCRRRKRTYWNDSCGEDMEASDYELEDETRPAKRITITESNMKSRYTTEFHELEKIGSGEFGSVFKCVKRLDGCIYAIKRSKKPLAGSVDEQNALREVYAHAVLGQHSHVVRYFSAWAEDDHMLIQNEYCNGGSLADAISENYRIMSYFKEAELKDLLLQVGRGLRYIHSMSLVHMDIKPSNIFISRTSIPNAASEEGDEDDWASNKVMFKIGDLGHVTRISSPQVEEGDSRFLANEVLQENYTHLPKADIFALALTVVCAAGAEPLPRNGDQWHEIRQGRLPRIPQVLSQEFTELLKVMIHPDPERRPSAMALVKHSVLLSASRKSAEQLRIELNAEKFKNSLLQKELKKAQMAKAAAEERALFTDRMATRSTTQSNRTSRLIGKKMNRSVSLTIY
# Sequence of Mitogen-activated protein kinase 3 (P27361 whole entry): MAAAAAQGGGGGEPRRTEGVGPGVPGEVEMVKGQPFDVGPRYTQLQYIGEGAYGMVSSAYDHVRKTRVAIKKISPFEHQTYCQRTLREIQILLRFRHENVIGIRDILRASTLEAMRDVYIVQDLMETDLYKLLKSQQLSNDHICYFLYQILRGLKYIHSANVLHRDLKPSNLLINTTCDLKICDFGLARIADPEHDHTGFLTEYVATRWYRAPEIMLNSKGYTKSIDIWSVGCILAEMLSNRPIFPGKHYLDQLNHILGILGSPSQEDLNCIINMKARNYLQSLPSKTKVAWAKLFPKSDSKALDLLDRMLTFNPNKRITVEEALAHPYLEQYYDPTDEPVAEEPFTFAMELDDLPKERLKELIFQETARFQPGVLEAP
# Sequence of Mitogen-activated protein kinase 9 (P45984 whole entry): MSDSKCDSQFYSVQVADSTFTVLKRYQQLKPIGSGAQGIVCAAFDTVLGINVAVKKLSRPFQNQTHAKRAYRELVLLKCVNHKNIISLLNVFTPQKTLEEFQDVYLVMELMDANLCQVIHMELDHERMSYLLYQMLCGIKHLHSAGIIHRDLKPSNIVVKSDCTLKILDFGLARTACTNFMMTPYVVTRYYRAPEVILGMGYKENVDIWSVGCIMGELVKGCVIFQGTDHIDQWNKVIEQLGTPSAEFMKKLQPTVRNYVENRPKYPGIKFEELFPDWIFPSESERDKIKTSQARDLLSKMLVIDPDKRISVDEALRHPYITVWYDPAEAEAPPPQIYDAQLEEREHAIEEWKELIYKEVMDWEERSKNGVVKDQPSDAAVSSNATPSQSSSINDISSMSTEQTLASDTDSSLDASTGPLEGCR
Compound,Kd [1],Kd [2],Kd [3],Kd [4],Kd [5],Kd [6],Kd [7],Kd [8],Kd [9],Kd [10],Kd [11],Kd [12]
C[C@]1(O)C[C@@H](c2nc(-c3ccc4ccc(-c5ccccc5)nc4c3)c3c(N)nccn32)C1 [LINSITINIB],> 30 µM (inactive),> 30 µM (inactive),> 30 µM (inactive),> 30 µM (inactive),1.14 µM (active),> 30 µM (inactive),> 30 µM (inactive),> 30 µM (inactive),> 30 µM (inactive),> 30 µM (inactive),–,–
CN(c1ncccc1CNc1nc(Nc2ccc3c(c2)CC(=O)N3)ncc1C(F)(F)F)S(C)(=O)=O [PF-00562271],> 30 µM (inactive),> 30 µM (inactive),–,> 30 µM (inactive),–,> 30 µM (inactive),> 30 µM (inactive),> 30 µM (inactive),> 30 µM (inactive),> 30 µM (inactive),> 30 µM (inactive),–
O[C@H]1CC[C@H](Nc2ncc3nc(Nc4c(F)cc(F)cc4F)n([C@H]4CCOC4)c3n2)CC1 [TANZISERTIB],> 30 µM (inactive),> 30 µM (inactive),> 30 µM (inactive),> 30 µM (inactive),> 30 µM (inactive),> 30 µM (inactive),> 30 µM (inactive),> 30 µM (inactive),> 30 µM (inactive),> 30 µM (inactive),3.69 µM (active),–
Cn1c(=O)n(-c2ccc(C(C)(C)C#N)cc2)c2c3cc(-c4cnc5ccccc5c4)ccc3ncc21 [DACTOLISIB],–,> 30 µM (inactive),> 30 µM (inactive),> 30 µM (inactive),–,> 30 µM (inactive),> 30 µM (inactive),> 30 µM (inactive),> 30 µM (inactive),> 30 µM (inactive),> 30 µM (inactive),–
Cn1cnc2c(F)c(Nc3ccc(Br)cc3Cl)c(C(=O)NOCCO)cc21 [SELUMETINIB],–,–,–,–,–,> 30 µM (inactive),> 30 µM (inactive),–,–,–,–,–
O=S(=O)(c1cccc2cnccc12)N1CCCNCC1 [FASUDIL],–,48.9 µM (active),> 30 µM (inactive),> 30 µM (inactive),–,–,> 30 µM (inactive),> 30 µM (inactive),> 30 µM (inactive),> 30 µM (inactive),> 30 µM (inactive),–
COc1cc2c(N3CCN(C(=O)Nc4ccc(OC(C)C)cc4)CC3)ncnc2cc1OCCCN1CCCCC1 [TANDUTINIB],–,–,–,–,–,> 30 µM (inactive),> 30 µM (inactive),–,–,–,–,–
COc1cc2c(Oc3ccc4[nH]c(C)cc4c3F)ncnc2cc1OCCCN1CCCC1 [CEDIRANIB],–,–,–,–,–,–,> 30 µM (inactive),–,–,–,–,–
CC(C)(O)CC(=O)NCCn1ccc2ncnc(Nc3ccc(Oc4cccc(C(F)(F)F)c4)c(Cl)c3)c21 [TAK-285],1.63 µM,> 30 µM (inactive),> 30 µM (inactive),> 30 µM (inactive),–,> 30 µM (inactive),> 30 µM (inactive),> 30 µM (inactive),> 30 µM (inactive),–,> 30 µM (inactive),> 30 µM (inactive)
CC(C)CC(=O)Nc1[nH]nc2c1CN(C(=O)C1CCN(C)CC1)C2(C)C [PHA-793887],> 30 µM (inactive),> 30 µM (inactive),–,> 30 µM (inactive),> 30 µM (inactive),–,> 30 µM (inactive),> 30 µM (inactive),> 30 µM (inactive),> 30 µM (inactive),–,> 30 µM (inactive)
C=CCn1c(=O)c2cnc(Nc3ccc(N4CCN(C)CC4)cc3)nc2n1-c1cccc(C(C)(C)O)n1 [ADAVOSERTIB],> 30 µM (inactive),> 30 µM (inactive),> 30 µM (inactive),> 30 µM (inactive),–,> 30 µM (inactive),> 30 µM (inactive),> 30 µM (inactive),–,> 30 µM (inactive),> 30 µM (inactive),–
CC1(C)CNc2cc(NC(=O)c3cccnc3NCc3ccncc3)ccc21 [MOTESANIB],–,–,–,–,–,> 30 µM (inactive),> 30 µM (inactive),–,–,–,–,–
CN(C)C/C=C/C(=O)Nc1cc2c(Nc3ccc(F)c(Cl)c3)ncnc2cc1O[C@H]1CCOC1 [AFATINIB],–,–,–,–,–,> 30 µM (inactive),> 30 µM (inactive),–,–,–,–,–
NC(=O)c1ccc(N(C(N)=O)c2c(F)cccc2F)nc1-c1ccc(F)cc1F [VX-702],> 30 µM (inactive),> 30 µM (inactive),> 30 µM (inactive),> 30 µM (inactive),> 30 µM (inactive),> 30 µM (inactive),> 30 µM (inactive),> 30 µM (inactive),> 30 µM (inactive),> 30 µM (inactive),> 30 µM (inactive),–
C[C@@]1(C(=O)Nc2ccc(F)nc2)CCCN1c1nc(Nc2cc(C3CC3)n[nH]2)c2cccn2n1 [BMS-754807],–,–,–,–,–,> 30 µM (inactive),> 30 µM (inactive),–,–,–,–,–
O=C(NOC[C@H](O)CO)c1ccc(F)c(F)c1Nc1ccc(I)cc1F [MIRDAMETINIB],> 30 µM (inactive),> 30 µM (inactive),–,> 30 µM (inactive),–,> 30 µM (inactive),> 30 µM (inactive),> 30 µM (inactive),> 30 µM (inactive),> 30 µM (inactive),> 30 µM (inactive),> 30 µM (inactive)
N#CCNC(=O)c1ccc(-c2ccnc(Nc3ccc(N4CCOCC4)cc3)n2)cc1 [MOMELOTINIB],> 30 µM (inactive),0.313 µM (active),> 30 µM (inactive),> 30 µM (inactive),–,> 30 µM (inactive),–,> 30 µM (inactive),–,> 30 µM (inactive),> 30 µM (inactive),–
COc1ccc(-c2ccc3ncc4c(c3c2)n(-c2ccc(N3CCNCC3)c(C(F)(F)F)c2)c(=O)n4C)cn1 [BGT-226 FREE BASE],> 30 µM (inactive),> 30 µM (inactive),–,> 30 µM (inactive),> 30 µM (inactive),–,> 30 µM (inactive),> 30 µM (inactive),> 30 µM (inactive),> 30 µM (inactive),> 30 µM (inactive),> 30 µM (inactive)
CCN(CCCOc1ccc2c(Nc3cc(CC(=O)Nc4cccc(F)c4)n[nH]3)ncnc2c1)CCOP(=O)(O)O [BARASERTIB],> 30 µM (inactive),> 30 µM (inactive),> 30 µM (inactive),> 30 µM (inactive),–,> 30 µM (inactive),> 30 µM (inactive),> 30 µM (inactive),> 30 µM (inactive),> 30 µM (inactive),> 30 µM (inactive),–
